Results on 1 compound are retold here after US8258099B2, “Pin1-modulating compounds and methods of use thereof” (Max-Planck-Gesellschaft zur Foerderung der Wissenschaften …, priority 2004, dated 2012).

A word on the IC50: it is the concentration at which inhibition is half-maximal.

Molecules are shown by their SMILES. Where two headings read alike, the source gives them in different places. Square brackets hold non-standard residues; d marks the D form. Peptide text beside a SMILES is read from it. * marks the point of attachment. Biotin = O=C1N[C@H]2[C@H](CS[C@H]2CCCCC(=O)*)N1; pT = C[C@@H](OP(=O)(O)O)[C@H](N)C(=O)O; 2Nal = N[C@@H](Cc1ccc2ccccc2c1)C(=O)O; Bta = N[C@@H](Cc1csc2ccccc12)C(=O)O; Pip = O=C(O)[C@@H]1CCCCN1

One data set addresses T1, hPin1 (Homo sapiens, UniProt Q13526).
T1 construct: The protease free assay ensures reliable measurement of IC50 values for the full-length hPin1
The experiment in a line: Protease free PPIase assay, hPin1. Type of data set: biochemical. The method, then:
Protein concentrations were determined using the extinction coefficient ε280=21030 M^−1 cm^−1 for hPin1, ε280=6979 M^−1 cm^−1 for the hPin1 PPIase domain, ε280=21030 M^−1 cm^−1 for XlPin1, ε280=8250 M^−1 cm^−1 for hPar14 and ε280=8250 M^−1 cm^−1 for hCyp18. Extinction coefficients were calculated using the program ProtParam Tool at ExPASy (SIB, Switzerland). All measurements were done at 10° C. in 35 mM Hepes buffer (pH 7.8).
The determination of the kinetic constants of the cis/trans isomerization within the protease-free system was performed using fluorescence based measurements (Garcia-Echeverria et al., 1993, Zhang et al., 2002) on a Hitachi F-3010 fluorescence spectrophotometer with H-Abz-Ala-Glu-Pro-Phe-NH-Np (SEQ ID NO: 2) as substrate. The substrate stock solution was 12 mM in anhydrous trifluoroethanol/0.55 M LiCl. Measurements were initiated by addition of the substrate (final concentration 10 μM) to a pre-incubated (15 min) mixture of 8.8 nM hPin1 or 7.1 nM XlPin1 and respective inhibitory peptide of desired concentrations. The excitation wavelength was 320 nm (spectral bandwidth 3 nm) and emission was detected at 420 nm (spectral bandwidth 10 nm).
Data analysis was performed by single-exponential nonlinear regression using the SigmaPlot Scientific Graphing System Version 5.00 (Jandel Corp.). The apparent first order rate constant kobs was computed by nonlinear regression of the progress curve obtained for the respective measurement. The rate constant k0 was determined in the absence of Pin1. The first order rate constants kenz was calculated from the equation kenz=kobs−k0. IC50 and Ki values were determined by fitting the first order rate constants kenz against the concentration of the inhibitory peptide by nonlinear regression according to Schutkowski et al., 1995 or a model for tight binding inhibitors (Morrison, 1969).
The protease free assay ensures reliable measurement of IC50 values for the full-length hPin1.

A short description of data set [1]: Stability against cellular phosphatases and proteases in HeLa cell lysate. As to conditions: cytoplasmic extracts from HeLa cells, prolonged incubation, MALDI-TOF. It is filed as in vitro ADME. The method, then: FIG. 4 depicts the stability of peptide 17 against cellular phosphatases and proteases. Peptide 17 was incubated for 3 hours in HeLa cell lysate in the absence of phosphatase and protease inhibitors. The mixture was then analyzed by capillary electrophoresis (short dashed line). As controls, the untreated peptide 17 (solid line) and its nonphosphorylated derivative (dotted line) were used. The temperature of the capillary thermostating system was kept at 16° C. Separation buffer was 50 mM sodium phosphate, pH 7.0. Signals were detected at 220 nm.
Peptide 17 was incubated with HeLa cell lysate for 3 h and analyzed with capillary electrophoresis using UV detection at 220 nm on a P/ACE MDQ (Beckman Coulter, Palo Alto, Calif.) system. Fused-silica capillaries (Polymicro Technologies) of 40 cm length at an operation voltage of 20 kV were used. As references, untreated peptide 17 and its nonphosphorylated derivative were used. The samples were hydrodynamically injected with 3.45 kPa for 10 s. 50 mM sodium phosphate buffer (pH 7.0) was used as separation buffer. The system temperature was kept at 16° C.
The stability of peptides 15 and 17 in cytoplasmic extracts from HeLa cells was investigated using MALDI-TOF mass spectrometry and capillary electrophoresis, respectively. In the cytosolic incubation mixture, streptavidin sepharose beads served to isolate peptide 15 fragments after prolonged incubation. […] Therefore, phosphopeptides are useless for evaluating Pin1 functions in vivo unless dephosphorylation can be avoided.

Data set [2] deals with T2, GST-hPin1, GST-hPin1 PPIase and GST-hPin1 WW domain (Homo sapiens, UniProt Q13526).
T2 construct: made in house
Put plainly: Far western blot related analysis, hPin1 and its single domains. It is filed as binding. To be noted: 1 μM peptide 15, 50 μM nonphosphorylated derivative. Here is the method:
(§1) FIGS. 2A-B depict western blot experiments analyzing the binding of peptide 15 to Pin1. FIG. 2A depicts the binding preferences of the PPIase and WW domain of hPin1 regarding peptide 15. In far western blot related experiments, increasing amounts (from left to right: 1, 5, 10, 52.5, 105 pmol) of GST, GST-hPin1 or its single GST-hPin1 PPIase and GST-hPin1 WW domain were spotted onto nitrocellulose membranes followed by a blocking procedure. The membranes were then incubated with a 1 μM solution of peptide 15 or 50 μM solution of its nonphosphorylated derivative (control). Signals were detected after incubation of the nitrocellulose membranes with horseradish peroxidase-conjugated streptavidin followed by a chemiluminescent reaction using the SuperSignal® substrate. FIG. 2B depicts an analysis of the binding of peptide 15 towards different GST-hPin1 variants. […] Residual PPIase activities of GST-hPin1 and its variants were determined according to Zhou et al., 2000 and/or Yaffe et al., 1997. The PPIase activity of the GST-hPin1 variant Ser16Glu was measured in the protease free PPIase assay.
GST-hPin1 variants, GST-hPin1 PPIase and GST-hPin1 WW domain were prepared as described previously (Ranganathan et al., 1997, Zhou et al., 2000). […] Specific bound peptide 15 was detected by a chemiluminescent reaction using the SuperSignal® substrate (Pierce).

For data set [3], the target named is T3, GST-hPin1 variant Ser16Glu (Homo sapiens, UniProt Q13526, S16E).
T3 construct: made in house
Put plainly: Far western blot related analysis, GST-hPin1 variants. Type of data set: binding. The method, then: as §1, with “variants. The indicated amounts of peptide 15 were spotted onto nitrocellulose membranes followed by a blocking procedure and incubation with the respective GST-hPin1 variant.” for “variants.”, “assay. […]” for “assay.”

Regarding `CC(=O)N[C@@H](CCCCNC(=O)CCCC[C@@H]1SC[C@@H]2NC(=O)N[C@@H]21)C(=O)N[C@@H](C)C(=O)N[C@@H](C)C(=O)N[C@@H](Cc1csc2ccccc12)C(=O)N[C@H](C(=O)N1CCCC[C@H]1C(=O)N[C@@H](Cc1ccc2ccccc2c1)C(=O)N[C@@H](CCC(N)=O)C(N)=O)[C@@H](C)OP(=O)(O)O` [Peptide 15, Ac-Lys(N^ε-biotinoyl)-Ala-Ala-Bth-Thr(PO3H2)Pip-Nal-Gln-NH2] (Ac-K(Biotin)AA[Bta][pT][Pip][2Nal]Q-NH2), the IC50 on hPin1 (blockade of PPIase activity of full-length hPin1, protease free assay, 10° C., read-out: IC50) came out at 0.21 µM. In addition, the IC50 at hPin1 (protease free assay, full-length hPin1, read-out: lowest IC50 value) is approximately 0.2 µM. Also, in data set [1], the “phosphothreonine residue in cytosol” value is listed as “completely dephosphorylated” and the “sequence integrity in cytosol” value is reported as “sequence integrity was maintained”. Further, the “binding to GST-hPin1 and its PPIase and WW domains” value in data set [2] was “binds only to the PPIase domain”. The “effect of Ser16Glu substitution in hPin1 on affinity” value in data set [3] is reported as “virtually no effect”.
